# Measurements as given in patent US8865704B2, “Wnt pathway antagonists” (Siena Biotech S.p.A., priority 2009, dated 2014).
# Tested on: Wnt/β-catenin pathway
# Assay: Wnt reporter assay (TCF-Luciferase, Firefly) in DBTRG-05MG cells
# Assay type: cell-based
# Conditions: Homo sapiens, 24 hours after compound addition
# Method: TCF-Luciferase: Three copies of a 4×TCF responsive elements were cloned into the pcDNA3.1/Zeo(+) vector (Invitrogen) after deletion of the constitutive CMV promoter and the insertion of the Firefly Luciferase from Promega (phFL-TK) to measure the activity of the Wnt/β-catenin pathway. The resulting plasmid was sequenced for quality control.
# Cells were grown in 20 μg/ml Zeocin and 20 μg/ml Zeocin plus 30 μg/ml Hygromicin respectively. The cells were plated at a density of 6500 cells/well in poly-D-lysine pre-treated 96 well-plates.
# IC50 determination: 36 hours after plating cells were incubated with 8-points (60 μM-40 μM-20 μM-10 μM-5 μM-1.66 μM-0.55 μM-0.185 μM) dilutions compound (0.6% DMSO (v/v)). Each compound was tested in triplicate in single plate. Luciferase detection was done with Dual-Luciferase Reporter Assay System (Promega). 24 hours after compound addition, media was removed and 30 μl of 1× lysis buffer was added to each well for 30 minutes. To each well 45 μl of Dual-Glo Luciferase reagent (Promega) were added and after 1 second delay Luciferase was detected for 1 second using Mithras LB940 instrument. After Firefly luciferase quantification 45 μl of Dual Stop & Glo reagent (Promega) were added to each well and Firefly Renilla was detected using the same parameters described before.
# Data were expressed as % of control for Firefly and Renilla luciferase independently; values were calculated using XLFit version 4.2, with a four parameters sigmoid function (XLFit model 205).
row,Structure (SMILES),IC50
1,COc1ccc2c(c1)c(=O)n(C[C@H]1CC[C@H](C(=O)N3CCN(C(=O)C(C)OC)CC3)CC1)c(=O)n2C (some centres unmarked) [Example 142],0.3 to 30 µM
2,Cc1ccc2[nH]c(=O)n(C[C@H]3CC[C@H](C(=O)N4CCN(C(=O)C(C)C)CC4)CC3)c(=O)c2c1 [Example 143],0.3 to 30 µM
3,COc1ccc2c(c1)c(=O)n(C[C@H]1CC[C@H](C(=O)Nc3ccc(C)nc3)CC1)c(=O)n2C [Example 148],0.3 to 30 µM
4,COCC(=O)N1CCN(C(=O)[C@H]2CC[C@H](Cn3c(=O)c4cc(OC)ccc4n(C)c3=O)CC2)C[C@H]1C [Example 151],0.3 to 30 µM
5,COc1ccc2[nH]c(=O)n(C[C@H]3CC[C@H](C(=O)N4CCN(C(=O)C5CC5)[C@@H](C)C4)CC3)c(=O)c2c1 [Example 152],0.3 to 30 µM
6,COc1ccc2c(c1)c(=O)n(C[C@H]1CC[C@H](C(=O)Nc3cccnc3)CC1)c(=O)n2C [Example 153],0.3 to 30 µM
7,COc1ccc2c(c1)c(=O)n(C[C@H]1CC[C@H](C(=O)Nc3ccc(OC)nc3)CC1)c(=O)n2C [Example 154],0.3 to 30 µM
8,COc1ccc2c(c1)c(=O)n(C[C@H]1CC[C@H](C(=O)Nc3ccc(OC)nc3OC)CC1)c(=O)n2C [Example 155],0.3 to 30 µM
9,COc1ccc2c(c1)c(=O)n(C[C@H]1CC[C@H](C(=O)N3CCN(C(=O)C4CC4)[C@@H](C)C3)CC1)c(=O)n2C [Example 156],0.3 to 30 µM
10,COc1ccc2[nH]c(=O)n(C[C@H]3CC[C@H](C(=O)N4CCN(C)C(=O)C4)CC3)c2c1 [Example 160],0.3 to 30 µM
11,CCOc1ccc2[nH]c(=O)n(C[C@H]3CC[C@H](C(=O)N4CCN(C(=O)C(C)C)CC4)CC3)c(=O)c2c1 [Example 162],0.3 to 30 µM
12,Cn1c(=O)n(C[C@H]2CC[C@H](C(=O)N3CCN(C(=O)C4CC4)CC3)CC2)c2cc(C(F)(F)F)ccc21 [Example 163],0.3 to 30 µM
13,COc1ccc2c(c1)c(=O)n(C[C@H]1CC[C@H](C(=O)Nc3ccncc3)CC1)c(=O)n2C [Example 165],0.3 to 30 µM
14,COc1ccc2c(c1)c(=O)n(C[C@H]1CC[C@H](C(=O)N3CCN(C(=O)n4ccnc4)CC3)CC1)c(=O)n2C [Example 171],0.3 to 30 µM
15,COc1ccc2c(c1)c(=O)n(C[C@H]1CC[C@H](C(=O)Nc3ccc(F)nc3)CC1)c(=O)n2C [Example 173],0.3 to 30 µM
16,COc1ccc2c(c1)c(=O)n(C[C@H]1CC[C@H](C(=O)Nc3cncc(F)c3)CC1)c(=O)n2C [Example 174],0.3 to 30 µM
17,CCOC(=O)N1CCN(C(=O)[C@H]2CC[C@H](Cn3c(=O)c4cc(OC)ccc4n(C)c3=O)CC2)CC1 [Example 176],0.3 to 30 µM

row,Structure (SMILES),IC50
1,COc1ccc2c(c1)c(=O)n(C[C@H]1CC[C@H](C(=O)Nc3ccnc(OC)c3)CC1)c(=O)n2C [Example 177],0.3 to 30 µM
2,COc1cccc2c1CN(C[C@H]1CC[C@H](C(=O)N3CCN(c4nccs4)CC3)CC1)C(=O)N2 [Example 178],0.3 to 30 µM
3,COc1ccc2c(c1)c(=O)n(C[C@H]1CC[C@H](C(=O)N3CCN(C(C)=O)CC3)CC1)c(=O)n2C(F)F [Example 179],0.3 to 30 µM
4,COC(=O)N1CCN(C(=O)[C@H]2CC[C@H](Cn3c(=O)n(C)c4ccc(OC)cc43)CC2)CC1 [Example 182],0.3 to 30 µM
5,COc1ccc2c(c1)n(C[C@H]1CC[C@H](C(=O)N3CCN(C(=O)C(C)C)CC3)CC1)c(=O)n2C [Example 184],0.3 to 30 µM
6,COc1ccc2c(c1)n(C[C@H]1CC[C@H](C(=O)N3CCN(C(=O)c4cncn4C)CC3)CC1)c(=O)n2C [Example 185],0.3 to 30 µM
7,COc1cc2c(cc1Cl)n(C[C@H]1CC[C@H](C(=O)N3CCOCC3)CC1)c(=O)n2C [Example 186],0.3 to 30 µM
8,COc1ccc2c(c1)c(=O)n(C[C@H]1CC[C@H](C(=O)Nc3ccc4ncccc4c3)CC1)c(=O)n2C [Example 187],0.3 to 30 µM
9,COc1ccc2c(c1)c(=O)n(C[C@H]1CC[C@H](C(=O)Nc3ccc(-c4ncco4)cc3)CC1)c(=O)n2C [Example 189],0.3 to 30 µM
10,COc1ccc2c(c1)c(=O)n(C[C@H]1CC[C@H](C(=O)Nc3cnc4ccccn34)CC1)c(=O)n2C [Example 190],0.3 to 30 µM
11,COc1ccc2c(c1)n(C[C@H]1CC[C@H](C(=O)N3CCN(C(=O)C4CCCO4)CC3)CC1)c(=O)n2C (some centres unmarked) [Example 192],0.3 to 30 µM
12,COc1ccc2c(c1)c(=O)n(C[C@H]1CC[C@H](C(=O)N3CCN(c4ccncc4)CC3)CC1)c(=O)n2C [Example 195],0.3 to 30 µM
13,CCOc1ccc2c(c1)c(=O)n(C[C@H]1CC[C@H](C(=O)Nc3ccncc3)CC1)c(=O)n2C [Example 196],0.3 to 30 µM
14,CCOc1ccc2c(c1)c(=O)n(C[C@H]1CC[C@H](C(=O)N3CCN(C(=O)COC)CC3)CC1)c(=O)n2C [Example 198],0.3 to 30 µM
15,CCOc1ccc2c(c1)c(=O)n(C[C@H]1CC[C@H](C(=O)N3CCN(C(=O)C4CCCC4)CC3)CC1)c(=O)n2C [Example 199],0.3 to 30 µM
16,COc1ccc2c(c1)c(=O)n(C[C@H]1CC[C@H](C(=O)Nc3cccc4cccnc34)CC1)c(=O)n2C [Example 201],0.3 to 30 µM
17,COC(=O)N1CCN(C(=O)[C@H]2CC[C@H](Cn3c(=O)n(C)c4ccc(C)nc43)CC2)CC1 [Example 203],0.3 to 30 µM

# Further lines, results first:
row,IC50,Structure (SMILES)
1,0.3 to 30 µM,COCC(=O)N1CCN(C(=O)[C@H]2CC[C@H](Cn3c(=O)c4cc(OC)ccc4n(C)c3=O)CC2)[C@H](C)C1 [Example 144]
2,0.3 to 30 µM,COCC(=O)N1CCN(C(=O)[C@H]2CC[C@H](Cn3c(=O)c4cc(OC)ccc4n(C)c3=O)CC2)[C@@H](C)C1 [Example 145]
3,0.3 to 30 µM,COc1ccc2c(c1)c(=O)n(C[C@H]1CC[C@H](C(=O)N3CCN(C(=O)c4ccncn4)CC3)CC1)c(=O)n2C [Example 147]
4,0.3 to 30 µM,COCC(=O)N1CCN(C(=O)[C@H]2CC[C@H](Cn3c(=O)c4cc(OC)ccc4n(C)c3=O)CC2)C[C@@H]1C [Example 149]
5,0.3 to 30 µM,COc1ccc2c(c1)c(=O)n(C[C@H]1CC[C@H](C(=O)N3CCN(C(=O)C4CC4)[C@H](C)C3)CC1)c(=O)n2C [Example 150]
6,0.3 to 30 µM,COc1ccc2[nH]c(=O)n(C[C@H]3CC[C@H](C(=O)N4CCN(C(=O)C5CC5)[C@H](C)C4)CC3)c(=O)c2c1 [Example 157]
7,0.3 to 30 µM,COc1ccc2[nH]c(=O)n(C[C@H]3CC[C@H](C(=O)N4CCN(C(=O)C5CC5)CC4)CC3)c2n1 [Example 158]
8,0.3 to 30 µM,COCC(=O)N1CCN(C(=O)[C@H]2CC[C@H](Cn3c(=O)[nH]c4ccc(OC)cc4c3=O)CC2)C[C@@H]1C [Example 159]
9,0.3 to 30 µM,CCOc1ccc2[nH]c(=O)n(C[C@H]3CC[C@H](C(=O)N4CCN(C(=O)C5CC5)CC4)CC3)c(=O)c2c1 [Example 161]
10,0.3 to 30 µM,Cn1c(=O)n(C[C@H]2CC[C@H](C(=O)N3CCOCC3)CC2)c2c(Cl)cccc21 [Example 164]
11,0.3 to 30 µM,COc1ccc2c(n1)n(C[C@H]1CC[C@H](C(=O)N3CCN(C(=O)C4CC4)CC3)CC1)c(=O)n2C [Example 166]
12,0.3 to 30 µM,COc1ccc2c(n1)n(C[C@H]1CC[C@H](C(=O)N3CCOCC3)CC1)c(=O)n2C [Example 167]
13,0.3 to 30 µM,Cn1c(=O)n(C[C@H]2CC[C@H](C(=O)N3CCN(C(=O)C4CC4)CC3)CC2)c2c(Cl)cccc21 [Example 168]
14,0.3 to 30 µM,CN1CCN(C(=O)[C@H]2CC[C@H](Cn3c(=O)n(C)c4ccc(C(F)(F)F)cc43)CC2)CC1=O [Example 170]
15,0.3 to 30 µM,COc1ccc2c(c1)c(=O)n(C[C@H]1CC[C@H](C(=O)Nc3ccncc3C)CC1)c(=O)n2C [Example 172]
16,0.3 to 30 µM,CC(=O)N1CCN(C(=O)[C@H]2CC[C@H](Cn3c(=O)n(C)c4ccc(Cl)cc43)CC2)CC1 [Example 180]
17,0.3 to 30 µM,Cn1c(=O)n(C[C@H]2CC[C@H](C(=O)N3CCOCC3)CC2)c2cc(Cl)ccc21 [Example 181]
18,0.3 to 30 µM,COCC(=O)N1CCN(C(=O)[C@H]2CC[C@H](Cn3c(=O)n(C)c4ccc(OC)cc43)CC2)CC1 [Example 183]
19,0.3 to 30 µM,COc1ccc2c(c1)c(=O)n(C[C@H]1CC[C@H](C(=O)Nc3cccc4ncccc34)CC1)c(=O)n2C [Example 188]
20,0.3 to 30 µM,COc1cccc(NC(=O)[C@H]2CC[C@H](Cn3c(=O)c4cc(OC)ccc4n(C)c3=O)CC2)c1 [Example 191]
21,0.3 to 30 µM,COc1ccc2c(c1)c(=O)n(C[C@H]1CC[C@H](C(=O)Nc3ccon3)CC1)c(=O)n2C [Example 193]
22,0.3 to 30 µM,COc1ccc2c(c1)c(=O)n(C[C@H]1CC[C@H](C(=O)Nc3ccc4nc(C)oc4c3)CC1)c(=O)n2C [Example 194]
23,0.3 to 30 µM,CCOc1ccc2c(c1)c(=O)n(C[C@H]1CC[C@H](C(=O)N3CCN(c4ccncc4)CC3)CC1)c(=O)n2C [Example 197]
24,0.3 to 30 µM,CCOc1ccc2c(c1)c(=O)n(C[C@H]1CC[C@H](C(=O)N3CCN(C(C)=O)CC3)CC1)c(=O)n2C [Example 200]
25,0.3 to 30 µM,CC(=O)N1CCN(C(=O)[C@H]2CC[C@H](Cn3c(=O)n(C)c4ccc(C(F)(F)F)cc43)CC2)CC1 [Example 202]
26,0.3 to 30 µM,COCC(=O)N1CCN(C(=O)[C@H]2CC[C@H](Cn3c(=O)n(C)c4ccc(C)nc43)CC2)CC1 [Example 204]
27,0.3 to 30 µM,COC(=O)N1CCN(C(=O)[C@H]2CC[C@H](Cn3c(=O)n(C)c4ccc(OC)nc43)CC2)CC1 [Example 205]
28,0.3 to 30 µM,CCOc1ccc2c(c1)c(=O)n(C[C@H]1CC[C@H](C(=O)N3CCN(C(=O)c4cncn4C)CC3)CC1)c(=O)n2C [Example 206]
